How the values were obtained:
Type in all cases: cell-based
Conditions in all cases: after 10, 20, 40 and 60 minutes at all dilutions 1:100, 1:200, 1:400, 1:800
Staphylococcus aureus = assay: Antimicrobial testing by agar dilution, Staphylococcus aureus
Method: (§1) The antimicrobial properties of the 6-(3-hydroxyphenyl)-2-methoxy-4-(3-methylphenyl)nicotinonitrile (4) were studied by the method of agar dilution. Test solutions of each compound were prepared in concentration of 1% using dimethylformamide as a solvent then they are diluted in physiological solution to obtain the final experimental dilutions 1:100, 1:200, 1:400, 1:800. The effect of these substances were compared with furacillin in a controllable study. The testing microbes used were gram positive bacteria Staphylococcus aureus, gram negative bacteria Escherichia coli, Pseudomonas aeruginosa and Candida albicans fungi were taken. The experiments used for this survey were meat-pentonlu agar (EPA) for cultivation of bacteria and Saburo environment for fungi. Each experiment used 1 ml of test solution on each plate 500 min. Add 2 drops of emulsified with microbes feel. All experimental samples were taken from the agar after 10, 20, 40, 60 minutes in the environment on the basis of Patrk planted. Bacteria were cultivated at a temperature of 37° C. for 1 day and the mushroom was kept in a thermostat for 2 hours at a temperature of 28° C. in the. Then results were checked.

Escherichia coli = assay: Antimicrobial testing by agar dilution, Escherichia coli
Method: as §1

Pseudomonas aeruginosa = assay: Antimicrobial testing by agar dilution, Pseudomonas aeruginosa
Method: as §1

Candida albicans = assay: Antimicrobial testing by agar dilution, Candida albicans
Method: as §1

Measured: inhibition activity

COc1nc(-c2cccc(O)c2)cc(-c2cccc(C)c2)c1C#N [6-(3-hydroxyphenyl)-2-methoxy-4-(3-methylphenyl)nicotinonitrile]
highest inhibition activity: all assays above
